These results are taken from patent publication US12077503B2, “Substituted cyclic amides and their use as herbicides” (FMC CORPORATION, priority 2015, dated 2024).

Format in all cases: in vivo
For test [1], the system named is barnyardgrass (Echinochloa crus-galli). In words: Test A postemergence. To be noted: Echinochloa crus-galli, post-emergence, 240 h, 125 g ai/ha, Postemergence; visual injury after approximately 10 d; 0 to 100 scale where 0 is no effect and 100 is complete control; read-out: Plant response rating, Barnyardgrass. The method, boiled down:
(§1)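 Preemergence soil spray on seeded pots or post-emergence spray on 1–2 leaf plants, in loam–sand blend. Greenhouse ~10 d. Visual rating 0–100 against untreated plants.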

Test [2] concerns blackgrass (Alopecurus myosuroides). The test is described as follows: Test A postemergence. To be noted: Alopecurus myosuroides, post-emergence, 240 h, 125 g ai/ha, Postemergence; visual injury after approximately 10 d; 0 to 100 scale where 0 is no effect and 100 is complete control; read-out: Plant response rating, Blackgrass. A digest of the protocol:
as §1

For test [3], the system named is ragweed (common ragweed, Ambrosia elatior). In words: Test A postemergence. The conditions noted are these: Ambrosia artemisiifolia, post-emergence, 240 h, 125 g ai/ha, Postemergence; visual injury after approximately 10 d; 0 to 100 scale where 0 is no effect and 100 is complete control; read-out: Plant response rating, Ragweed. A digest of the protocol: as §1
Test [4] concerns wheat (Triticum aestivum). In words: Test A postemergence. To be noted: Triticum aestivum, post-emergence, 240 h, 125 g ai/ha, Postemergence; visual injury after approximately 10 d; 0 to 100 scale where 0 is no effect and 100 is complete control; read-out: Plant response rating, Wheat. A digest of the protocol: as §1
The next test concerns corn (Zea mays). The test is described as follows: Test A postemergence. The conditions noted are these: Zea mays, post-emergence, 240 h, 125 g ai/ha, Postemergence; visual injury after approximately 10 d; 0 to 100 scale where 0 is no effect and 100 is complete control. A digest of the protocol:
as §1

For test [5], the system named is Kochia (Kochia scoparia). In words: Test A postemergence. The conditions noted are these: Bassia scoparia, post-emergence, 240 h, 125 g ai/ha, Postemergence; visual injury after approximately 10 d; 0 to 100 scale where 0 is no effect and 100 is complete control; read-out: Plant response rating, Kochia. The method, boiled down: as §1
In test [6] the test system is ryegrass, Italian (Italian ryegrass, Lolium multiflorum). The test is described as follows: Test A postemergence. To be noted: Lolium multiflorum, post-emergence, 240 h, 125 g ai/ha, Postemergence; visual injury after approximately 10 d; 0 to 100 scale where 0 is no effect and 100 is complete control; read-out: Plant response rating, Ryegrass, Italian. The method, boiled down: as §1

Test [7] relates to giant foxtail (Setaria faberii). The test is described as follows: Test A postemergence. To be noted: Setaria faberi, post-emergence, 240 h, 125 g ai/ha, Postemergence; visual injury after approximately 10 d; 0 to 100 scale where 0 is no effect and 100 is complete control; read-out: Plant response rating, Foxtail, Giant. A digest of the protocol: as §1
In test [8] the test system is Galium (catchweed bedstraw, Galium aparine). In words: Test A postemergence. To be noted: Galium, post-emergence, 240 h, 125 g ai/ha, Postemergence; visual injury after approximately 10 d; 0 to 100 scale where 0 is no effect and 100 is complete control; read-out: Plant response rating, Galium. The method, boiled down:
as §1

Test [9] concerns pigweed (Amaranthus retroflexus). The test is described as follows: Test A postemergence. The conditions noted are these: Amaranthus retroflexus, post-emergence, 240 h, 125 g ai/ha, Postemergence; visual injury after approximately 10 d; 0 to 100 scale where 0 is no effect and 100 is complete control; read-out: Plant response rating, Pigweed. A digest of the protocol: as §1
Test [10] relates to barnyardgrass (Echinochloa crus-galli). In words: Test A preemergence. To be noted: Echinochloa crus-galli, pre-emergence, 240 h, preemergence, read-out: Barnyardgrass plant response rating; for pest or weed control at 125 g/ha: 125 g ai/ha, 0 to 100 scale where 0 is no effect and 100 is complete control; for pest or weed control at 500 g/ha: 500 g ai/ha, visual injury rating about 10 d after treatment, 0 to 100 scale (0 no effect, 100 complete control). A digest of the protocol:
as §1

Test [11] relates to ragweed (common ragweed, Ambrosia elatior). In words: Test A preemergence. The conditions noted are these: Ambrosia artemisiifolia, pre-emergence, 240 h, preemergence, read-out: Ragweed plant response rating; for pest or weed control at 500 g/ha: 500 g ai/ha, visual injury rating about 10 d after treatment, 0 to 100 scale (0 no effect, 100 complete control). A digest of the protocol:
as §1

Test [12] deals with Kochia (Kochia scoparia). In words: Test A preemergence. To be noted: Bassia scoparia, pre-emergence, 240 h, preemergence, read-out: Kochia plant response rating; for pest or weed control at 125 g/ha: 125 g ai/ha, 0 to 100 scale where 0 is no effect and 100 is complete control; for pest or weed control at 500 g/ha: 500 g ai/ha, visual injury rating about 10 d after treatment, 0 to 100 scale (0 no effect, 100 complete control). A digest of the protocol:
as §1

Test [13] concerns ryegrass, Italian (Italian ryegrass, Lolium multiflorum). The test is described as follows: Test A preemergence. The conditions noted are these: Lolium multiflorum, pre-emergence, 240 h, preemergence, read-out: Ryegrass, Italian plant response rating; for pest or weed control at 500 g/ha: 500 g ai/ha, visual injury rating about 10 d after treatment, 0 to 100 scale (0 no effect, 100 complete control). A digest of the protocol:
as §1

Test [14] has as its system giant foxtail (Setaria faberii). In words: Test A preemergence. To be noted: Setaria faberi, pre-emergence, 240 h, preemergence, read-out: Foxtail, Giant plant response rating; for pest or weed control at 125 g/ha: 125 g ai/ha, 0 to 100 scale where 0 is no effect and 100 is complete control; for pest or weed control at 500 g/ha: 500 g ai/ha, visual injury rating about 10 d after treatment, 0 to 100 scale (0 no effect, 100 complete control). A digest of the protocol:
as §1

Test [15] has as its system pigweed (Amaranthus retroflexus). In words: Test A preemergence. To be noted: Amaranthus retroflexus, pre-emergence, 240 h, preemergence, read-out: Pigweed plant response rating; for pest or weed control at 125 g/ha: 125 g ai/ha, 0 to 100 scale where 0 is no effect and 100 is complete control; for pest or weed control at 500 g/ha: 500 g ai/ha, visual injury rating about 10 d after treatment, 0 to 100 scale (0 no effect, 100 complete control).

Where [16] appears, read: 125 g ai/ha, 0 to 100 scale where 0 is no effect and 100 is complete control.

For the compound `CS(=O)(=O)c1ccccc1NC(=O)[C@H]1C(=O)N(C2CC2)CC[C@@H]1c1cccc(C(F)(F)F)c1` [Compound 927], the pest or weed control at 125 g/ha (in test [1]; in test [2]; in test [3]; in the test on Kochia (Kochia scoparia) [5]; in test [6]; in test [7]) was 0% each time. The pest or weed control at 125 g/ha (in test [8]; in test [9]; in test [10]; in test [11] (setting [16]); in the test with Kochia (Kochia scoparia) [12]; in [13] (setting [16])) was 0% throughout. Moreover, the pest or weed control at 125 g/ha in [14] and in test [15] was 0% throughout. Also, the plant injury at 125 g/ha in test [4] is 0%. In the test on corn (Zea mays), this compound registered a Corn plant response rating (crop injury, 0 = no effect, 100 = complete kill) at 125 g/ha of 0%. Also, the pest or weed control at 500 g/ha in test [10] was 70%; in [11], 0%; in the test on Kochia (Kochia scoparia) [12] it was 0%; in [13] it was 0%; in test [14], 70%; in [15], 0%.
Take `CN1C[C@H](c2ccc(C(F)(F)F)cc2)[C@@H](C(=O)Nc2cccc(F)c2Cl)C1=O` [Compound 938]: the pest or weed control at 125 g/ha in test [1] turned out to be 80%; in [2], 40%; in test [3], 0%; in the test on Kochia (Kochia scoparia) [5], 40%; in test [6], 20%; in test [7] it was 80%. In addition, the pest or weed control at 125 g/ha in test [8] was 50%; in test [9] it was 50%; in [10], 90%; in the test on Kochia (Kochia scoparia) [12] it was 70%; in test [14], 90%; in test [15] it was 80%. Also, the plant injury at 125 g/ha in [4] was found to be 40%. The same compound yielded a Corn plant response rating (crop injury, 0 = no effect, 100 = complete kill) at 125 g/ha with corn (Zea mays) of 60%. In addition, the pest or weed control at 500 g/ha in [10] is 90%; in [11], 20%; in the test on Kochia (Kochia scoparia) [12], 80%; in [13], 30%; in test [14] it was 90%; in test [15] it was 90%.
